From paper PMC4919066 (PLoS Pathogens, 2016)

Tests used:
[1] = system: HCMV Towne; experiment: HCMV plaque reduction assay in HFFs; assay type: cell-based, Human Cytomegalovirus; conditions: GCV 5 μM, 0.5 and 2 million cells/plate
Protocol: (§1) Human Foreskin Fibroblasts (HFFs) passage 12–16 (ATCC, CRL-2088) and mouse embryonic fibroblasts (MEFs) passage 9–14 (ATCC, CRL-1658) were grown in Dulbecco's Modified Eagle Medium (DMEM) containing 10% fetal bovine serum (FBS) (Gibco, Carlsbad, CA) in a 5% CO2 incubator at 37°C. Infection with HCMV or HSV was performed in HFFs, and infection with mouse CMV was performed in MEFs. For HCMV, cells were seeded in either a 96-well plate or 100 mm culture plates (Corning Costar, Sigma Aldrich) at 0.5 or 2 million cells /plate. Following 90 minute adsorption, media was removed and cells were washed with PBS. Media containing 4% FBS and compounds were added to each well. Infected treated HFFs were collected at 72 hpi and lysates were assayed for luciferase activity using a luciferase assay kit (Promega, Madison, WI) on GloMax-Multi+ Detection System (Promega). In second cycle assays, supernatants were collected from all conditions of the first cycle at 96 hpi and used for infection of fresh HFFs in 96-well plates. Luciferase activity was measured 72 h following second cycle infection. For HSV1-KOS/Dlux/oriS, a luciferase assay was performed at 24 hpi. Plaque assays were performed with clinical isolates of HSV2 and HCMV Towne (ATCC VR-977). HFFs were seeded at 3 million cells/plate in 12-well plates and infected 24 h later with HSV2 at 200 PFU/well. For HCMV or MCMV, HFFs or MEFs were seeded at 0.5 or 2 million cells /plate in a 12-well plate and infected 24 hours later at 100 PFU/well. Following virus adsorption (60 min and 90 min for HSV and HCMV, respectively), virus was aspirated, and DMEM containing 4% fetal bovine serum (FBS) with (for HSV) or without (for HCMV/MCMV) 0.5% carboxymethyl-cellulose, were added with the compounds at indicated concentrations into triplicate wells. After incubation at 37°C for 10 days (for HCMV), 3 days for MCMV or 2 days (for HSV), the overlay was removed and plaques were counted after crystal violet staining.

[2] = system: MCMV; experiment: MCMV plaque reduction assay in MEFs; assay type: cell-based, mouse CMV; conditions: GCV 5 μM, 0.5 and 2 million cells/plate
Protocol: The pp28-luciferase HCMV Towne and a GCV-resistant pp28-luciferase were used. The recombinant viruses express luciferase under the control of the late CMV gene promoter, pp28. Luciferase expression is activated 48–72 hours post infection (hpi). The recombinant viruses provide a highly-sensitive reporter system which correlates with plaque reduction assay. The Towne HCMV strain (ATCC VR-977) was used for plaque reduction, quantitative reverse transcriptase PCR (qRT-PCR), and immunoprecipitation assays. Human herpes virus strains were: luciferase HSV1- KOS/Dlux/oriS [52] and clinical isolates of HSV2. The clinical isolates were provided by the clinical microbiology laboratory with no identifiers that can link to a specific subject. Murid Herpesvirus (MCMV: ATCC VR-1399) was used for infection of mouse embryonic fibroblasts (MEFs) and mice.
as §1, with “For HSV1-KOS/Dlux/oriS, a luciferase assay was performed at 24 hpi. Plaque assays were performed with clinical isolates of HSV2 and HCMV Towne (ATCC VR-977). HFFs were seeded at 3 million cells/plate in 12-well plates and infected 24 h later with HSV2 at 200 PFU/well. For HCMV or MCMV, HFFs or MEFs were seeded at 0.5 or 2 million cells /plate in a 12-well plate and infected 24 hours later at 100 PFU/well. Following virus adsorption (60 min and 90 min for HSV and HCMV, respectively), virus was aspirated, and DMEM containing 4% fetal bovine serum (FBS) with (for HSV) or without (for HCMV/MCMV) 0.5% carboxymethyl-cellulose, were added with the compounds at indicated concentrations into triplicate wells.” left out

[3] = system: HCMV; experiment: Virus entry, pp65 immunofluorescence assay; assay type: cell-based, Human Cytomegalovirus; conditions: emetine 75 nM, GCV 10 μM, CpG 2006 10 μM, added 24 h prior to infection
[4] = system: HCMV; experiment: Generation of drug resistant virus; assay type: cell-based, Human Cytomegalovirus; conditions: 5 passages, UL97 sequencing
Protocol: Screening of drug resistant virus was performed as reported. Two million cells were plated on a 6-well plate and infected with HCMV (MOI 0.05). […] The cells were maintained in DMEM with 4% FBS until plaques were observed. The supernatants from these plates were used to infect fresh HFFs in a 6-well plate and each time drug concentration was increased by two fold. […] DNA extracted from supernatants collected at the last stage was used for UL97 sequencing.

[5] = system: MDM2-IE2; experiment: Co-immunoprecipitation MDM2-IE2 in transfected HEK293 cells; assay type: cell-based; conditions: IE1/2 transfection, emetine 75 nM or GCV 5 μM for 4 h
Protocol: HEK-293 cells seeded into 10 cm petri dishes were transfected with HCMV plasmid encoding IE1 and IE2 (pRL45), using Lipofectamine 2000 in serum free medium. After 6 h, 10% FBS containing media was added along with 10 μM of MG132. […] Cells were then harvested to prepare lysates for IP.
Non-infected, infected or emetine-treated HFFs were treated with MG132 (10 μM) for 12h. Cells were harvested after 24 hpi and lysed with IP buffer containing 150 mM NaCl, 50mM Tris pH 7.5, 2 mM EDTA, 0.5% TritonX-100 and 0.5% NP-40-40. 1 mg of lysate was precleared with bead slurry for 30 min. The precleared lysates were incubated with anti-MDM2 (2 μg) antibody overnight. The antibody complexes were isolated using protein A/G beads (Santa Cruz), washed three times with 50% IP buffer. The immunoprecipitate-protein A/G beads were boiled in SDS sample buffer, and the supernatant was analyzed on SDS-PAGE gels after immunoblotting as described previously. 1% of the cell lysate used for IP was loaded on gels as ‘Input’. Confirmatory reverse IPs were performed as described in each experiment. Isotype control antibodies included: rabbit IgG polyclonal, mouse IgG2a kappa and mouse IgG2b kappa monoclonal (Abcam). Mouse monoclonal RPS19 antibody (Abcam) served as an additional negative control for the IPs. Densitometry analysis was performed to determine relative ratio of immunoprecipitated protein to its input level.

Structure (SMILES): Nc1nc(O)c2ncn(COC(CO)CO)c2n1 [GCV, Ganciclovir]
- HCMV inhibition and cell density [1]: inhibited HCMV and MCMV irrespective of cell density
- MCMV inhibition and cell density [2]: inhibited HCMV and MCMV irrespective of cell density
- inhibition of viral entry [3]: neither emetine nor GCV inhibited viral entry
- selection of resistant virus with increasing drug concentration [4]: selected for a C607Y mutation in UL97
- interaction between MDM2 and IE2 [5]: had no effect on this interaction
